The test system of experiment [1] is Mus musculus. Kind of experiment: Anti-inflammatory activity in CD1 mouse model of TPA-induced ear edema assessed as inhibition of ear edema at 0.1 to 1 umol/ear applied to right ear 10 mins after TPA-stimulation and measured 4 hrs post compound dose. The experiment is classed as functional, organism-based.
The subject of experiment [2] is Mus musculus. Kind of experiment: Anti-inflammatory activity in CD1 mouse model of TPA-induced ear edema assessed as inhibition of ear edema at 1 umol/ear applied to right ear 10 mins after TPA-stimulation and measured 4 hrs post compound dose. The format is functional.
Experiment [3] concerns Mus musculus. Kind of experiment: Anti-inflammatory activity in CD1 mouse model of TPA-induced ear edema assessed as inhibition of ear edema at 0.1 to 1 umol/ear applied to right ear 10 mins after TPA-stimulation and measured 4 hrs post compound dose relative to indomethacin. The format is functional.

Consider 3 compounds from ChEMBL document CHEMBL3421579, “Absolute configuration of labdane diterpenoids from Physalis nicandroides” (J Nat Prod, 2015).

For the compound `COc1ccc2c(c1)c(CC(=O)O)c(C)n2C(=O)c1ccc(Cl)cc1` [INDOMETHACIN], in the experiment with Mus musculus [1], the IC50 came out at 0.297 µmol.

On to `C=C1CC[C@H]2C(C)(C)CCC[C@]2(C)[C@H]1CC/C(=C/CO)CO`, for which the “inhibition (INH)” value with Mus musculus [2] came out at 41.35%.

As for `C/C(=C\CO)CC[C@@H]1[C@@]2(C)CCCC(C)(C)[C@@H]2CC[C@@]1(C)O`, the IC50 with Mus musculus [1] is 0.67 µmol. For the same compound, the “Ratio IC50” value in the experiment on Mus musculus [3] worked out at 2. For the same compound, in the experiment with Mus musculus [2], the “inhibition (INH)” value is 64.32%.
